Data taken from patent US7026342B2, “Method for treating fibrotic diseases or other indications utilizing thiazole, oxazole and imidazole compounds” (Alteon, Inc., priority 2000, dated 2006).
Structures can show the parent of a compound that is named as a salt.

Key:
[1] = tested on: Rats with left anterior descending coronary artery ligated; assay: Rat myocardial infarct model, left anterior descending coronary artery ligated; type: in vivo; conditions: 10 mg/kg intraperitoneal daily for 30 days before ligation and 14 days after
Protocol: Rats received a daily intraperitoneal dose of 10 mg/kg 3-[2-phenyl-2-oxoethyl]-4,5-dimethyl-thiazolium salt (compound A) (n=14) or placebo (n=15) for 30 days. The animals then underwent a thoracotomy and the left anterior descending coronary artery ligated. The chest was then closed and the animals allowed to recover for 14 days while continuing to be treated with compound A or placebo. The animals were then sacrificed and the hearts removed for histological examination. The weight of the infarcted tissue was 0.16±0.04 g for the placebo treated animals compared to 0.11±0.05 g for the compound A treated animals (p=0.04).

[2] = tested on: elderly patients with pulse pressures greater than 60 mm Hg; assay: Phase IIa clinical trial; type: in vivo, human
Description: When the heart pumps blood into the vascular system, the ability of the arteries to expand helps to push blood through the body. When arteries become stiff, as they do in the natural process of aging, the ability of the arteries to expand is diminished and also has consequences for the heart. The heart has to work harder to pump the blood into the stiff arteries, and eventually hypertrophies (enlarges in size) to accomplish this. A hypertrophied heart is an inefficient pump, and is one of the disorders that leads to congestive heart failure. […] The potential clinical benefit of this is to lessen the effort that the heart must expend to push blood throughout the body. The effect is also believed to contribute to preventing hypertrophy and subsequent inefficiency of the heart, which inefficiency would contribute to congestive heart failure.
Atherosclerosis is a disease that involves deposition of blood lipids in plaque in the arteries throughout the body. In coronary arteries, accumulation of plaque progressively leads to reduced coronary flow, with occlusion of the arteries causing focal death of cardiac tissue (myocardial infarction, heart attack). If the amount of tissue that dies is large enough, death ensures. […] Reducing local deposits of plaque should eventually lessen the risk of myocardial infarction and death due to heart attacks.
Pulse pressure is the difference between systolic and diastolic blood pressure. In a young human, systolic pressure is typically 120 mm Hg and diastolic pressure is 80 mm Hg, resulting in a pulse pressure of 40 mm Hg. With age, in many individuals pulse pressure increases, largely due to the increase in systolic pressure that results from stiff vessel disease. In individuals with pulse pressure greater than 60 mm Hg there is an increased risk of death from cardiovascular morbidities. […] This decrease in pulse pressure was believed to be due primarily to the effect of the agent on lowering the systolic blood pressure.

dog model for diabetes = assay: Dog model for diabetes, ventricular elasticity; type: in vivo
Description: (§1) Cardiovascular risk correlates more closely with the systolic and the pulse pressure than with the diastolic pressure. In diabetic patients, the cardiovascular risk profile of diabetic patients is strongly correlated to duration of diabetes, glycemic control and blood pressure. Structural matrix proteins contribute to the function of vessels and the heart, and changes in the physical behavior of cardiovascular walls are believed to be important determinants of circulatory function. In elderly individuals, the loss of compliance in the aorta leads to isolated systolic hypertension, which in turn expands the arterial wall and thereby diminishes the dynamic range of elasticity.

cardiovascular tissues = assay: In vivo studies of vascular stiffening and cardiovascular collagen; set-up: species or system rodents, canines and primates
Description: as §1

Type IV collagen = assay: In situ hybridization studies, Type IV collagen expression
Description: as §1

TGFbeta = assay: In situ hybridization studies, TGFbeta expression
Description: as §1

Cc1sc[n+](CC(=O)c2ccccc2)c1C [compound A, 3-[2-phenyl-2-oxoethyl]-4,5-dimethyl-thiazolium salt]
weight of the infarcted tissue ([1]; n=14, p=0.04 vs placebo): 0.11 ± 0.05 g | thickness of the ventricular wall in the infarcted zone ([1]; n=14, p=0.09 vs placebo): 2.56±0.22 mm | stiffness of arteries, measured by the ratio of stroke volume (ml) to pulse pressure (mm Hg) ([2]; Phase IIa clinical trial): showed an ability to reverse the stiffness of arteries | amount of circulating triglycerides (lipids) ([2]; Phase IIa trial): increased the amount of circulating triglycerides | pulse pressure ([2]; Phase IIa trial, elderly patients with pulse pressures greater than 60 mm Hg, statistically significant): reduced pulse pressure | end diastolic pressure and end diastolic volume, indicators of ventricular elasticity (dog model for diabetes): returned to a value at about the mid-point between the disease impaired value and the value for control dogs | mass of collagen in cardiovascular tissues (cardiovascular tissues; in vivo): reduction in the mass of collagen in cardiovascular tissues | vascular stiffening (cardiovascular tissues; in vivo studies in rodents, canines and primates): substantially ameliorating vascular stiffening | expression of Type IV collagen (Type IV collagen): reduces the expression of both Type IV collagen and TGFbeta | expression of TGFbeta (TGFbeta): reduces the expression of both Type IV collagen and TGFbeta
